Biological target: T1, Glycogen phosphorylase, liver form (Homo sapiens, UniProt P06737)
T1 sequence (P06737 whole entry): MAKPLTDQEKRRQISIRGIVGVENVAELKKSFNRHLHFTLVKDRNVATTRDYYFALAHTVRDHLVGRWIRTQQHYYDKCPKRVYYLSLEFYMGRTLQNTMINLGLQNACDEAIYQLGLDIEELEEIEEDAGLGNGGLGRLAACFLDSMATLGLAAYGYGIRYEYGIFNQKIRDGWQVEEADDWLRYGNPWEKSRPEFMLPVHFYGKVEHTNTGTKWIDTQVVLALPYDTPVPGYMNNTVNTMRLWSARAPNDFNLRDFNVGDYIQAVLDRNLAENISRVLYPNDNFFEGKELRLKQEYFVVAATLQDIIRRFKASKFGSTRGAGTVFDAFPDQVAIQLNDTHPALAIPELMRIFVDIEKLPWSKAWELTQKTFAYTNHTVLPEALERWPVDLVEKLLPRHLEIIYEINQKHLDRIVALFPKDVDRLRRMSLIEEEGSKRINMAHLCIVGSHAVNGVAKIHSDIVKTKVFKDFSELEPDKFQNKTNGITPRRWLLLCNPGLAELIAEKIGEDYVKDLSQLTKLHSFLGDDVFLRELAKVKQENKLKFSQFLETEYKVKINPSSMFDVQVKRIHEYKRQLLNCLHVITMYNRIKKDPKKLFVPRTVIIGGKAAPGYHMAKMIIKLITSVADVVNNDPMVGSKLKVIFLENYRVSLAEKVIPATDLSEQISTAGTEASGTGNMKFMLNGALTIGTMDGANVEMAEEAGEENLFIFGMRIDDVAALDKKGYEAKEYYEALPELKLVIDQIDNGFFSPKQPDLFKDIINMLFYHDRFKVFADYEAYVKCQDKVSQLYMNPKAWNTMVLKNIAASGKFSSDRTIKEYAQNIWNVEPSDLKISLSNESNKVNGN
Assay: Glycogen Phosphorylase Activity Assay
Conditions: pH 6.8; 22 °C
Procedure: The activity of recombinant human liver GPa in the forward direction was measured by monitoring the production of NADPH. Enzyme activity was assayed at pH 6.8 in phosphate buffer containing beta-NADP, alpha -glucose 1,6-bisphosphate, glucose-6-phophate dehydrogenase, phosphoglucomutase, glycogen, and glucose. […] The reaction was started by adding hLGPa solution (beta-glycerophosphate and cystein, pH 6.8). The reaction took place at room temperature, and the conversion of oxidized beta-NADP to reduced beta-NADPH was measured at 340 nm for 2 h. The hLGPa inhibition IC50 values were calculated using the logistic regression method and SAS software.

| Structure (SMILES) | IC50 [nM] |
| --- | --- |
| O=C(Nc1ccc(C(O)CO)c(F)c1)c1cc2cc(Cl)ccc2[nH]1 (stereo not drawn) [5-chloroindolecarboxamide, 9g] | 340 |
| O=C(Nc1ccc(C(O)CO)cc1Cl)c1cc2cc(Cl)ccc2[nH]1 (stereo not drawn) [5-chloroindolecarboxamide, 9c] | 1100 |
| O=C(Nc1ccc(C(O)CO)cc1F)c1cc2cc(Cl)ccc2[nH]1 (stereo not drawn) [5-chloroindolecarboxamide, 9b] | 420 |
